Laboratory results reported in US10253002B2, “Compounds and methods of treating infections” (Neoculi Pty Ltd., priority 2013, dated 2019).
In brackets after ≈: the same amount, converted by molar mass. Several values for one entry are separate records, joined by “and”; a condition that tells them apart may be missing. Equal entries are not always repeated. Where two headings read alike, the source gives them in different places.

What was measured:
[1] = system: Pseudomonas aeruginosa; assay: Broth microdilution MIC, Example 7 (NCL812 and analogues); format: cell-based; conditions: for MIC: Pseudomonas aeruginosa
[2] = system: Staphylococcus aureus T3-129 / Staphylococcus spp. MK1; assay: Synergy studies, checkerboard method (FIC index); format: cell-based
[3] = system: S. pneumoniae isolates; assay: Micro-broth dilution MIC, Example 5; format: cell-based, Streptococcus pneumoniae; conditions: Streptococcus pneumoniae, read-out: Relative MIC with media type for D39, D39; 10% horse serum-supplemented broth
Method in brief: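 Pneumococcal isolates grown overnight on horse blood agar, tested by 1:2 serial broth microdilution in 4% lysed horse blood/cation-adjusted Mueller-Hinton broth at 37 °C, 5% CO2. MIC50/MIC90 and MBC50/MBC90 taken per CLSI as the 50th/90th-percentile concentrations across isolates.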

[4] = system: Streptococcus pneumoniae; assay: Broth microdilution MIC (CLSI) in 4% LHB-CAMHB, Example 1; format: cell-based; conditions: Streptococcus pneumoniae, read-out: MIC
Procedure: The powder was dissolved in 10 mL DMSO and 1 mL volumes were aliquoted into eppendorf tubes and stored at -80° C. […] Serial dilutions were prepared in 96 well plates were set up in a safety cabinet according to methods standard in the art. Briefly: 90 μL of the working antibiotic solution was added to each well in Column 12 of the plate, and mixed well, before 90 μL was transferred to column 11. The solutions were mixed again, and then transferred to the next column as before, continuing the dilutions through to column 3. Mixing the well requires the pick up and expulsion of 90 μL in each well 3-4 times before picking up and transferring the 90 μL to the next well. […] The bacterial solution was placed into a sterile trough and 10 μL of bacterial solution added into wells 2 through to 12 on each required row (dilution of 1:10, with final concentration of bacteria in wells=5×10^5 CFU/mL). The tray was sealed and incubated at 37° C. for 18-24 h. The purity of bacterial suspension was confirmed by streaking out 50 μL of the 1:20 dilution onto a SBA plate, which was incubated for 37° C. for 18 h and examined. Viable counts were carried out to ensure that the correct concentration of bacteria and been added to the wells. […] The following day the number of colonies on the plates was counted and the average count in 100 μL obtained. The study was multiplied by 10 to obtain a viable bacterial count per mL. Minimum inhibitory concentrations (μg/mL) were determined using the broth microdilution method recommended by the Clinical and Laboratory Standards Institute (CLSI) (Methods for Dilution Antimicrobial Susceptibility Tests for Bacteria That Grow Aerobically; Approved Standard-Seventh Edition. CLSI M7-A7, 2006; Performance Standards for Antimicrobial Disk and Dilution Susceptibility Tests for Bacteria Isolated from Animals; Approved Standard-Second Edition. CLSI […]-A2, 2002; Performance Standards for Antimicrobial Susceptibility Testing; CLSI M2-A9, 2006). […] Bacterial growth (turbidity) in the wells with antimicrobial was compared with the amount of growth (turbidity) in the growth-control well (containing no antimicrobial). All isolates were tested in duplicate, if there was a difference of greater than one two-fold dilution in the results, the test was repeated a third time. The purity of the isolates was closely monitored during testing by subculturing the prepared bacterial inoculum onto SBA. Control organisms (Enterococcus faecalis strain ATCC 29212, S. aureus strain ATCC 29213 and S. pneumoniae strain ATCC 49619) were used throughout the testing to monitor quality control. […] The MIC50, MIC90 and MIC range (minimum and maximum) were calculated for each of the bacterial groups.

In the case of `N=C(N/N=C/c1ccc(Cl)cc1)N/N=C/c1ccc(Cl)cc1` [NCL812, 1,3-bis[(E)-(4-chlorophenyl)methyleneamino]guanidine], the “MIC (μg/ml) at 24 hours, P. aeruginosa” value ([1]; 24 hours, 1st and 2nd replicate rows) is reported as greater than 128 µg/mL, the MIC ([1]; 24 h, read-out: MIC (μg/ml) at 24 hours, P. aeruginosa, 24 hours, 1st and 2nd replicate rows) is reported as greater than 128 µg/mL and the MIC ([1]; P. aeruginosa, 1st, read-out: MIC) is reported as greater than 128 µg/mL. For the same molecule, the MIC ([1]; P. aeruginosa, 2nd, read-out: MIC) was greater than 128 µg/mL, the MIC ([1]; read-out: MIC) was greater than 128 µg/mL and the FIC2 ([2]; MIC of NCL812 in combination with Chloramphenicol/MIC of NCL812 alone, S. aureus strain T3-29) was 0.25 and 0.5. The FIC2 ([2]; MIC of NCL812 in combination with Erythromycin/MIC of NCL812 alone, S. aureus strain T3-29) was 0.5 and 0.25, the FIC2 ([2]; MIC of NCL812 in combination with Penicillin G/MIC of NCL812 alone, Staphylococcus spp. Strain MK1) was 0.5 and the FIC2 ([2]; MIC of NCL812 in combination with Sulfamethoxazole/MIC of NCL812 alone, Staphylococcus spp. Strain MK1) was 0.25 and 0.5. The “NCL812 MIC Alone” value ([2]; Staphylococcus spp. Strain MK1, NCL812 alone) was 2 µg/mL, the “NCL812 MIC With Antibiotic” value ([2]; with Erythromycin, S. aureus strain T3-29) was 2 µg/mL and the “NCL812 MIC With Antibiotic” value ([2]; with Penicillin G, Staphylococcus spp. Strain MK1) was 2 µg/mL. For the same molecule, the “NCL812 MIC With Antibiotic” value ([2]; with Sulfamethoxazole, Staphylococcus spp. Strain MK1) was 1 µg/mL and 2 µg/mL, the MIC [3] was 32 µg/mL (≈ 95.7 µM) and the MIC ([4]; Strep. pneumoniae 3, Test 2) was 2 µg/mL (≈ 5.98 µM). For the same molecule, the MIC ([4]; Strep. pneumoniae 16, Test 1) was 0.5 µg/mL (≈ 1.5 µM) and the MIC ([4]; Strep. pneumoniae 16, Test 2) was 1 µg/mL (≈ 2.99 µM).
